We go through one compound from US12527776B2, “Treatment of ciliopathies using inhibitors of glucosylceramide synthase (GCS)” (GENZYME CORPORATION, priority 2019, dated 2026).

The subject of test [1] is Bbs2−/− mouse model of BBS. As to the kind of experiment: GL1 analysis in tissues of Bbs2−/− mice. Type of test: in vivo. Conditions: 0.033% w/w in feed from 1 to 6 months of age. From the text: (§1) A Bbs2^−/− mouse model has been described by Nishimura D Y et al. (Proc Natl Acad Sci, 101:16588-16593 (2004)) with exons 5-14 of Bbs2 replaced with a neomycin cassette. Mice were backcrossed into 129/SvJ background. Treated Bbs2^−/− mice were fed ad libitum with 0.033% w/w of Compound 1 incorporated in feed from the age of 1 month to 6 months. Bbs2^−/− and Wt control animals were fed regular 5053 chow (LabDiet). To establish metabolic disease, Bbs2^−/− mice were left untreated until four-months of age, and then treated with Compound 1 incorporated into feed for the fifth and sixth months.
Quantitative analysis of glycosylceramide was performed by liquid chromatography and tandem mass spectrometry (LC/MS/MS). Briefly, 100 mg of tissue were homogenized in 1 ml of water with Mini Beadbeater (BioSpec Products, Inc., Bartlesville, OK). 10 μl of homogenate was extracted with 1 ml of 90% of 96:2:1:1 acetonitrile/methanol/acetic acid/water (v/v/v/v) (mobile phase A) and 10% of 98:1:1 methanol/acetic acid/water (v/v/v) (mobile phase B); both contained 5 mM ammonium acetate. The samples were placed on a VX-2500 tube vortexer (VWR International, LLC, MA) for 5 min and then centrifuged for 4 min at 8,400 rpm (Beckman Coulter, Inc., IN). […] Quantitation was performed using GL1 standard (Glucocerebrosides, Gaucher's spleen; Matreya, LLC, Pleasant Gap, PA).

Test [2] concerns Bbs2−/− mice. As to the kind of experiment: Metabolic parameters in Bbs2−/− mice. Type of test: in vivo, mouse.
Text: as §1
Body composition was analyzed using an EchoMRI™. Measurements of the fat mass and of lean mass were recorded and percent of body fat was calculated. Body composition was calculated using the following formula: fat mass/(fat mass+lean mass).
Food weights were recorded from the food hopper and bedding. Average food consumption per animal per day was estimated using the following formula: [(food weight at start of period−(food weight at end of period in hopper[…])]/#animals in the cage/#days of observation.
Blood was collected during necropsy and incubated for 15 minutes at room temperature to allow clot formation. Clot was removed by centrifugation at 15,000 rpm for 5 minutes to collect serum. Leptin ELISA kit (R&D Systems) was used to measure leptin concentrations according to the manufacturer's instructions.
Total RNA was isolated from homogenized adipose tissue dissected from 6-month old mice using TRizol and chloroform extraction followed by the RNAeasy Mini Kit Purification (Qiagen), quantified using the NanoDrop 2300 system, and was reverse transcribed using High Capacity cDNA Reverse Transcription Kit (Applied Biosystems). Primers for Fas and Srebf1 were purchased from Applied Biosystems. Quantitative PCR was performed in duplicate for each sample on an Applied Biosystems RT-PCR machine using Taqman Universal Master Mix (Thermo Fisher) according to the manufacturer's instructions. Relative amounts of mRNA were determined using the Comparative CT Method for quantification and were normalized to GAPDH mRNA levels.
Automated digital image analysis was performed on whole adipose tissues using Visiopharm Image Analysis software (DK-2970 Hoersholm, Denmark, version 6.9.1). Two custom-written applications were created and run consecutively for each digital image. The first application detected adipose tissue using threshold classification and outlined the area as a Region of Interest (ROI). The second application used threshold to classify the tissue inside the ROI into three categories: Cytoplasm (cytoplasmic membrane), Adipose (Adipocyte), and Other (unwanted artifacts, large vessels, other tissue). Post processing steps included enclosing adipose with cytoplasm and selecting adequate adipose cells for counting by removing any adipose with a form factor less than 0.5.
Paraffin-embedded samples of brain tissue from Wt and Bbs2^−/− mice were cut and 4 micrometer sections were boiled in Antigen Retrieval solution (DAKO) in a pressure cooker to unmask antigens. Sections were blocked for 1 hour with 3% BSA followed by incubation with primary antibodies to adenylate cyclase III (Santa Cruz Biotechnology) diluted in 3% BSA overnight at 4° C. Alexa Fluor 488 secondary antibody (Invitrogen) was used at the dilution 1:1000. Images were acquired on a Leica DM5500B microscope fitted with ×40 and ×60 objectives using Leica Application Suite Advance Fluorescence software (Leica Microsystems).

Test [3] relates to Bbs2−/− mice adipose tissue. The test can be described thus: RNA sequencing of adipose tissue of Bbs2−/− mice. Type of test: in vivo, mouse. The following applies: 0.033% w/w in feed from 1 to 6 months of age. The method, then: Total RNA was isolated from previously flash frozen adipose tissue dissected from four six-month old Wt (Wt #1-4), Bbs2^−/− (Bbs #1-4) or Bbs2^−/− treated with 0.033% w/w of Compound 1 (Bbs+Cmpd1 #1-4) in feed from 1 to 6 months of age using TRIzol (Thermo Fisher Scientific) and chloroform extractions. RNA samples were further purified with RNAeasy Mini Kit (Qiagen) to remove genomic DNA. The concentration and purity of RNA was assessed with a NanoDrop 8000 microspectrophotometer (Thermo Fisher Scientific). RNA integrity was then evaluated with a 4200 TapeStation System (Agilent Technologies).
The sequencing libraries were generated using the TruSeq Stranded mRNA Library Prep Kit as per the manufacturer recommendations (Illumina). Sequencing was performed using High Output NextSeq 500/550 v2.5 kits on an Illumina NextSeq 500 platform (2×75 bp paired-end reads).
Data analysis was performed with Array Studio V10.1 (Omicsoft Corporation, a Qiagen company) and mapped to Genome Reference Consortium Mouse Build 38. Heatmaps are generated using a Center Scale normalization algorithm on median normalized Log 2 expression values as per the software developer (Omicsoft).

Test [4] has as its system Bbs2−/− mice. The test can be described thus: Liver abnormalities in Bbs2−/− mice (liver weight, ALT, triglycerides). Type of test: in vivo, mouse. Conditions: feed from 1 to 6 months of age.
Text: as §1
Triglyceride and ALT levels were measured using a VetACE™ analyzer (Alfa Wasserman, West Coldwell, NJ).

The mark [5] stands for this setting: 0.033% w/w in feed from 1 to 6 months of age.
Where [6] appears, read: established disease, 0.033% w/w in feed starting at 4 months of age, after one month.
Where [7] appears, read: white adipose tissue, feed from 1 to 6 months of age.

Regarding `CC(C)(NC(=O)OC1CN2CCC1CC2)c1cccc(-c2ccc(F)cc2)c1` (stereo not shown) [Compound 1, 1-azabicyclo[2.2.2]oct-3-yl [2-(4′-fluorobiphenyl-3-yl)propan-2-yl]carbamate], in test [1], the “levels of GL1 in the brain, kidney, liver and serum” value is listed as “reduction”. In addition, in test [2] (setting [5]), the body fat entry is “significant decrease”, the body weight result is recorded as “significant decrease”, the food consumption result is reported as “significant decrease” and the serum leptin entry is given as “reduced to wild type levels”. In addition, the “cilia in the hypothalamus” value in test [2] (Compound in feed) is recorded as “preserved the hypothalamic cilia”. Also, in test [2] (setting [6]), the body fat entry is given as “decreased”, the body weight entry was “decreased” and the serum leptin result is listed as “decreased”. Also, the adipocyte size result in test [2] (established disease, after the two-month treatment) is “decrease of adipocyte size”. Also, in test [2] (setting [7]), the adipocyte size entry is “reduction of adipocyte size” and the “expression of pro-adipogenic gene Srebf1” value was “corrected upon treatment to the levels observed in Wt control”. Further, the “expression of genes in adipogenesis, ciliogenesis and sphingolipid homeostasis pathways” value in test [3] is listed as “normalizes the expression of genes”. In addition, in test [4], the liver weight entry was “normalized”, the “serum ALT” value is listed as “normalized” and the serum triglycerides result was “normalized”.
